# Reference: patent US20160221974A1, “SODIUM CHANNEL MODULATORS FOR THE TREATMENT OF PAIN AND DIABETES” (CHROMOCELL CORPORATION, priority 2013, published 2016)
# “And” between values parts separate entries of the source, which are not always exact repeats. Equal entries are not always repeated.
# Key:
# NaV1.7 = molecular target: T1, NaV1.7 (Homo sapiens, UniProt Q15858); assay: Patchliner Electrophysiological In-Vitro Assay (NaV1.7); format: cell-based; details: Patchliner patch clamp, HEK293, holding at V1/2
# T1 construct: expressed in transfected cells
# T1 sequence (Q15858 whole entry): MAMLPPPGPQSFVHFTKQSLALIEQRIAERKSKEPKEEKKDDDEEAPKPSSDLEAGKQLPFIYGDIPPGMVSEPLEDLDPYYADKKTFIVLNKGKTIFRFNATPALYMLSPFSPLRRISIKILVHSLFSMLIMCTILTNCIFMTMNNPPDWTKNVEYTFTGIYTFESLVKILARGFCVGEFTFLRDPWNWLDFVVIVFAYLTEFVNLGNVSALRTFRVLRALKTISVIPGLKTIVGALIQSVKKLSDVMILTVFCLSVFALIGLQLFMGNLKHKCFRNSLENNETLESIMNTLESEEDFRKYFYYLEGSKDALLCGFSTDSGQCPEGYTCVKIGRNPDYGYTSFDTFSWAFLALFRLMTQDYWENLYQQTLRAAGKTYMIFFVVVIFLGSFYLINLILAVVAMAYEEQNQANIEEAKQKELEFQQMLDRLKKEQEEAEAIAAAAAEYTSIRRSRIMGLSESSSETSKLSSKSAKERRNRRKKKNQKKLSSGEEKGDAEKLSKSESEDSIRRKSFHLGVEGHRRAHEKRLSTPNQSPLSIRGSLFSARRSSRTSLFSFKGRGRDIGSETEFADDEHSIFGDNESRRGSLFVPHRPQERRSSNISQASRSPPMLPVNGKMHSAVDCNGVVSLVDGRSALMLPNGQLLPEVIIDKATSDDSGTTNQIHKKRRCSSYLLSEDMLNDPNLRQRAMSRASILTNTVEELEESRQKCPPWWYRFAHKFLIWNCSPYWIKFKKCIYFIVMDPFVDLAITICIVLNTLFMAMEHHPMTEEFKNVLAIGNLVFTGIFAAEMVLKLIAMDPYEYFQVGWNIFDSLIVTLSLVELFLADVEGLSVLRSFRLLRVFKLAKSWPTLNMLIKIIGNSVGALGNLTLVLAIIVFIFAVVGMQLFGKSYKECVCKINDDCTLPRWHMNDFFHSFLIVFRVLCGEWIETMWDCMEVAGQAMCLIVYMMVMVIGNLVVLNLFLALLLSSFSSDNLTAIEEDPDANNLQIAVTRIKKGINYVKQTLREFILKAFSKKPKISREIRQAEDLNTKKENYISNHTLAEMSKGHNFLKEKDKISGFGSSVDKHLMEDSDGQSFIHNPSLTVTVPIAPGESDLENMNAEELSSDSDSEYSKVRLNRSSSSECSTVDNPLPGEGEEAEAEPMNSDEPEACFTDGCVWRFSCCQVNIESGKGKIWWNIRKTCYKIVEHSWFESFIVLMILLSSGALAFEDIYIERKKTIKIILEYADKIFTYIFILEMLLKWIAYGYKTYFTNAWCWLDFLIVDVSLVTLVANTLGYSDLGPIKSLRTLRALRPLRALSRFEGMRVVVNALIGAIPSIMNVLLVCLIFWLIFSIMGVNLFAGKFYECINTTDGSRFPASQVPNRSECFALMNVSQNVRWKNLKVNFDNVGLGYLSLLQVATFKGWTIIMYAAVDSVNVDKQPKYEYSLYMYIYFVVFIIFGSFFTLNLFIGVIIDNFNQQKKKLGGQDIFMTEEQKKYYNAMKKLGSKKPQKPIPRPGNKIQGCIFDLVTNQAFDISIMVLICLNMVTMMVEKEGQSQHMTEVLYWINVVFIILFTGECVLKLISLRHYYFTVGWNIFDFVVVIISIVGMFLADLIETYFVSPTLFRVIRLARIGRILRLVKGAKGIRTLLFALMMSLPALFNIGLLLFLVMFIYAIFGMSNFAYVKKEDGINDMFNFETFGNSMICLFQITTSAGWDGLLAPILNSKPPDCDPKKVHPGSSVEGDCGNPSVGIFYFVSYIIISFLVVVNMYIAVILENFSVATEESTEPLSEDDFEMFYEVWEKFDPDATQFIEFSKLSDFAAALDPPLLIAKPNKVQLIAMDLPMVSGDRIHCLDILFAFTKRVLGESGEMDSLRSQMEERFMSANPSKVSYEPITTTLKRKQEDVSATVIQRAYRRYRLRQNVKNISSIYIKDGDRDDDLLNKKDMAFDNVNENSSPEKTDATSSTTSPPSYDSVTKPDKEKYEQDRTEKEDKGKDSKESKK
# T1 sequence (Q07699 19-218 partner): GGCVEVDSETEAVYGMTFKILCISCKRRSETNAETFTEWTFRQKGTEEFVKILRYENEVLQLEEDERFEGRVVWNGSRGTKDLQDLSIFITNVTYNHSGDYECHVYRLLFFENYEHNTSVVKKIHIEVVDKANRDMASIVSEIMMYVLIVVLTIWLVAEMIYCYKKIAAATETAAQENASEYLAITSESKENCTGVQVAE
# T1 sequence (O60939 30-215 partner): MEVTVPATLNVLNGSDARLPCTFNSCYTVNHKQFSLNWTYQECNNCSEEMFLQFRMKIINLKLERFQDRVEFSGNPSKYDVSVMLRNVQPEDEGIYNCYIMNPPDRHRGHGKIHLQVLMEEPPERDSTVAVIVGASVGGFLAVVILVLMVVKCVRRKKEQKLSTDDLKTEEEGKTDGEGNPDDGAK
# Method in brief: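 Automated whole-cell patch clamp at room temperature on HEK293 cells stably expressing hNav1.7 with β1 and β2 subunits. Inactivated-state Ki: cells held at their own V1/2, stepped to −120 mV for 5–10 ms, then to Vmax for 10–20 ms, repeated every 10 s; dose-dependent inhibition analysed.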
# NaV1.5 = molecular target: T2, NaV1.5 (Homo sapiens, UniProt Q14524); assay: Patchliner Electrophysiological In-Vitro Assay (NaV1.5); format: cell-based; details: Patchliner patch clamp, HEK293
# T2 construct: expressed in transfected cells
# T2 sequence (Q14524 whole entry): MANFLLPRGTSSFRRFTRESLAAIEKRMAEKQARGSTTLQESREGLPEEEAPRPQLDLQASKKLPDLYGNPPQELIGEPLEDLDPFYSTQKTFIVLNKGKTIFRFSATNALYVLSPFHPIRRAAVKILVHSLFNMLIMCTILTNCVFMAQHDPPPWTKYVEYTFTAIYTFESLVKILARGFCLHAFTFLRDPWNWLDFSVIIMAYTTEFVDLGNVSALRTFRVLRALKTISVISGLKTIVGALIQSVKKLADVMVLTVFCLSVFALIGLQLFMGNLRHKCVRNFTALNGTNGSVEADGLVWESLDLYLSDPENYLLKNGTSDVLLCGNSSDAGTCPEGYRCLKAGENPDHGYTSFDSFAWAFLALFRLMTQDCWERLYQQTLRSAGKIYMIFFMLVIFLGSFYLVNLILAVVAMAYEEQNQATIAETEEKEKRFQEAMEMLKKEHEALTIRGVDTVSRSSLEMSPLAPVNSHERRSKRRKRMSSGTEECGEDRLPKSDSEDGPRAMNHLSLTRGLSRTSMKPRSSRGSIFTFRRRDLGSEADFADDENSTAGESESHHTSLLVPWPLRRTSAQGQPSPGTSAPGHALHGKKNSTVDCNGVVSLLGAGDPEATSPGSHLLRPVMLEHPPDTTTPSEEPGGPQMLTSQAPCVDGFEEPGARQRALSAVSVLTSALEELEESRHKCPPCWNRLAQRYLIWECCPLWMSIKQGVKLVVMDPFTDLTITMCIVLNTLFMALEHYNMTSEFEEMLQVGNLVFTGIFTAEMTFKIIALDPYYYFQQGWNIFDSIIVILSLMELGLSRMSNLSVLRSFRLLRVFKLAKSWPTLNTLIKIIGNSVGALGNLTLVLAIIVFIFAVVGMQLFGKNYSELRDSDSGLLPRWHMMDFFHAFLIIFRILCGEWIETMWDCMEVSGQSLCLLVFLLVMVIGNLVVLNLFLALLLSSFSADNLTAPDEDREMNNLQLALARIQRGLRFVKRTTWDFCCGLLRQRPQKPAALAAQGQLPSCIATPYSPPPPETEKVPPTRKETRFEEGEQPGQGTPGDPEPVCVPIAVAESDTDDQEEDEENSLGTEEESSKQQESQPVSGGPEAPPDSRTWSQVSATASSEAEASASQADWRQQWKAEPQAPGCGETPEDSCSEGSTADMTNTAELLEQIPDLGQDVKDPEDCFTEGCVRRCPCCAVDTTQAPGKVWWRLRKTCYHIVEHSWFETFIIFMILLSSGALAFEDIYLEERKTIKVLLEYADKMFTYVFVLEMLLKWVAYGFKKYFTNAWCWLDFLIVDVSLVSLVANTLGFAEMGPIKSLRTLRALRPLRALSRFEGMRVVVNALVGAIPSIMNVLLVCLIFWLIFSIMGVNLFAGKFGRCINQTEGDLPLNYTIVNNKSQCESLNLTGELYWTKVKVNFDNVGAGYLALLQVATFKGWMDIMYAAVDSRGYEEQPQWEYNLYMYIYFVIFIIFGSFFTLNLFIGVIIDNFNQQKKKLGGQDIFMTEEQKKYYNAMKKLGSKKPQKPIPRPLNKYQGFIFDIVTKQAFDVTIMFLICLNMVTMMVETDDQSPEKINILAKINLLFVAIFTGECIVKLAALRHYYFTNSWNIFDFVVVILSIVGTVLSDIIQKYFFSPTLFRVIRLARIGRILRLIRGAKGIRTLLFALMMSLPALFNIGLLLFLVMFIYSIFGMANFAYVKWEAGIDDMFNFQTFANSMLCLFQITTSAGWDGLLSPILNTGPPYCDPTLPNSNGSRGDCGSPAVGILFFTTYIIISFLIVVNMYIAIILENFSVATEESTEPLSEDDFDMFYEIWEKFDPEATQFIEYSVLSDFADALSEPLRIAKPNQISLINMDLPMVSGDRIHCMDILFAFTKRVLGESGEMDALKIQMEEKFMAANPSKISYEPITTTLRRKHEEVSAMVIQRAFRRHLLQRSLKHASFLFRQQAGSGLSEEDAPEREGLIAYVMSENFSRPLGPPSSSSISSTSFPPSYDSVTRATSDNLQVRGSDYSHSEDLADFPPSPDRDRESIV
# Protocol: The recording of sodium current from stable HEK293 cell lines expressing NaV1.7 or NaV1.5 was done on a Patchliner® instrument, Nanion Technologies. The Patchliner® is a fully automated bench-top patch clamp platform and can record simultaneously from up to eight single cells with GΩ seals.
# For patch-clamp experiments, cells were grown under standard culturing conditions in Dulbecco's Modified Eagles medium supplemented with 10% fetal bovine serum, glutamine and HEPES. Cells were harvested and kept in suspension for up to 4 hours with no significant change in quality or ability to patch. Whole cell patch clamp recordings were conducted according to Nanion's standard procedure for the Patchliner®. Experiments were conducted at room temperature.
# Voltage protocols were designed to establish: 1) peak current amplitude (Imax), 2) test potential (Vmax) and 3) half-inactivation potential (V1/2) for each of the eight individual cells. To determine V1/2, a standard steady-state inactivation protocol was executed using a series of fifteen 500 ms depolarizing pre-pulses in 10 mV increments (starting at −130 mV) and immediately followed by a 10 ms test pulse to Vmax. To estimate test compound affinity to the inactivated state of sodium channel (Ki), the holding potential for each cell was set automatically to the V1/2 calculated from a steady-state inactivation data. The current was activated with the following voltage protocol: holding at V1/2 for 2-5 seconds, return to the −120 mV for 5-10 ms to relieve fast inactivation, stepping to test potential (Vmax) for 10-20 ms. This voltage protocol was repeated every 10 seconds to establish the baseline with 2-3 buffer additions followed by the test compound addition. The dose-dependent inhibition was analyzed using Nanion's Data Analysis Package.
# [1] = tested on: Partial Sciatic Nerve Ligation (PSNL) model; assay: Partial Sciatic Nerve Ligation (PSNL) model, behavioral tests; format: in vivo, male Sprague-Dawley rats; details: oral route, relative to vehicle control, measured 30 minutes post dose
# From the text: 250-350 g male Sprague-Dawley rats from appropriate animal resources were anesthetized with 2.5% isoflurane. A hind leg was shaved, and the skin was sterilized with 0.5% iodine and 75% alcohol. All surgical instruments were sterilized before surgery and between animals. An incision (1 cm) was made at the middle of the thigh in parallel with the muscle and sciatic nerve distribution. The muscle was exposed and dissected at the joint of two muscles (biceps femoris) indicated by the light colored (white) fascia line. The sciatic nerve was just beneath the muscle and was hooked out using an 18-20 G feeding needle (90 degree curved); the sciatic nerve was flat on the feeding needle and approximately one-half the diameter of the nerve is tightly ligated with 7-0 silk suture. A response of the injured leg twitch indicates the success of ligation. After checking hemostasis, bupivicaine 0.1-0.2 ml (0.125%) was given at the incision area, the muscle and the adjacent fascia are closed with 5-0 absorbable sutures. The skin was sutured with absorbable suture and tissue glue. The control group using sham surgery animals (about 8-10 animals) underwent the same surgical procedure but with no nerve ligation. Animals were returned to their home cage after recovery from anesthesia.
# The analgesic effect of the test compound was expressed as a percent recovery (% Recovery) relative to the sham control group baseline and calculated according to the formula:
# % Recovery=100%−{[(sham mean−test compound mean)/(sham mean−vehicle mean)]×100%}
# wherein “sham mean” refers to average score in the sham-operated group; “test compound mean” refers to average score in the PSNL-group (animals with partial sciatic nerve ligation) or diabetic group (animals treated with STZ) treated with a test compound; “vehicle mean” refers to average score in the PSNL-group or diabetic group treated with vehicle only. The above formula was used to obtain data for the following in vivo behavioral tests.
# The following behavioral tests were conducted (i.e., plantar test, paw pressure test, and von Frey test) started on day 3 and thereafter once weekly following surgery or use of a diabetic inducer. […]
# Rats were placed on the glass surface of a thermal testing apparatus (Model 336, IITC/Life Science Instruments, Woodland Hills, Calif.) and were allowed to acclimate for 10 min before testing on the glass surface at room temperature. […] The paw withdrawal latency was recorded by a digital timer. The thermal threshold was determined as the mean withdrawal latency from two to three consecutive trials of both hindpaws. […]
# Animals were placed under clear plastic boxes above a wire mesh floor, which allowed full access to the paws. […] Mechanical paw withdrawal thresholds (PWTs) were measured with the up-down testing paradigm. […]
# hNaV1.7 = molecular target: T3, hNaV1.7 (Homo sapiens, UniProt Q15858); assay: FDSS Membrane Potential In-Vitro Assay; format: cell-based; details: stimulation with veratridine and scorpion venom, read-out: NaV1.7 IC50
# T3 construct: expressed in transfected cells
# T3 sequence (Q15858 whole entry): as the sequence (Q15858 whole entry) above
# T3 sequence (Q07699 19-218 partner): as the sequence (Q07699 19-218 partner) above
# T3 sequence (O60939 30-215 partner): as the sequence (O60939 30-215 partner) above
smiles,measurement,setting,value
"NC(=O)CNCCCc1cc(Cl)ccc1Oc1cc(F)c(S(=O)(=O)Nc2cscn2)cc1Cl [Compound 49, 2-((3-(5-chloro-2-(2-chloro-5-fluoro-4-(N-(thiazol-4-yl)sulfamoyl)phenoxy)phenyl)propyl)amino)acetamide]",IC50,NaV1.7,< 100 nM
same,IC50,NaV1.5,> 10000 nM
same,effect in the tactile allodynia test,[1],no significant effect
same,IC50,hNaV1.7,100 to 500 nM and 500 to 1000 nM
